In patent US5122448A, “Assay of anti-Epstein-Barr virus nuclear antigen antibodies with synthetic polypeptides” (Scripps Clinic and Research Foundation, priority 1990, dated 1992):
Residues, ends and D or L forms follow the SMILES beside them.

How the values were obtained:
[1] = tested on: rabbit anti-polypeptide antibody to polypeptide P62; test: Competition ELISA with rabbit anti-polypeptide P62 antibody on solid phase P62; type: binding; conditions: antibody first incubated with competing polypeptide
Experimental: Anti-peptide antibody binding and inhibition studies were carried out by an enzyme-linked immunosorbent assay (ELISA) as described below.
Contact between the wells and antigen-containing solution was maintained for a predetermined time, typically 15 minutes, and at 20 degrees C., to form an antigen-coated solid phase. The solid and liquid phases were separated and the wells were washed three times with BBS.
Rabbit and human sera (body sample aliquots) were assayed for anti-polypeptide activity by adding 100 microliters of a serum diluted 1:20 in BBS per well to form a solid/liquid phase composition. Contact between the diluted sera and the antigen-coated solid phase was maintained for a predetermined time such as 1 hour, and at 20 degrees C., for an immunoreactant to form. The solid and liquid phases were separated, and the solid phase; i.e., antigen-coated, immunoreactant-containing wells, was then washed three times with BBS.

[2] = Circular dichroism spectroscopy; type: physicochemical; conditions: 1 mg/ml in phosphate buffered saline
Experimental: The conformational properties of the polypeptides were investigated to elucidate any secondary structure that might be necessary for polypeptide immunoreaction with human anti-EBNA antibodies. The polypeptides were dissolved at a concentration of 1 mg/ml in phosphate-buffered saline (PBS). Spectra were taken using 1 ml samples in a Cary 61 spectropolarimeter (Cary Instruments, Applied Physics Corp., Monrovia, Calif.) interfaced and automated with a Digital Equipment Corporation 11/02 computer (Digital Equipment Corporation, Maynard, Mass.).

anti-EBNA antibodies = test: ELISA with polypeptide as solid phase antigen, anti-polypeptide activity of sera (OD405); type: binding, human; conditions: for OD405 × 10^3 obtained with Patient Antibodies to peptide: serum 1:20
Experimental: Briefly, microtiter wells (Costar, #3590, Cambridge, MA) were typically coated with individual polypeptides as antigens by adding 100 microliters (ul) of BBS [10 millimoler (mM) sodium borate (pH 8.3), 150 mM NaCl] containing polypeptide at a concentration of 10 micrograms per milliliter (ug/ml). Contact between the wells and antigen-containing solution was maintained for a predetermined time, typically 15 minutes, and at 20 degrees C., to form an antigen-coated solid phase. The solid and liquid phases were separated and the wells were washed three times with BBS.
Non-specific binding sites were blocked by admixing 200 microliters of 1% bovine serum albumin (BSA) in each well to form another solid/liquid phase admixture, and maintaining that solid/liquid phase admixture for 30 minutes, at 20 degrees C. The phases were separated and excess, unbound BSA was removed by washing three times with BBS.
The antibodies in human sera that immunoreacted with an adsored polypeptide were detected using an indicating means comprising alkaline phosphatase-conjugated goat anti-human Ig antibody (Tago, Burlington, Calif.). The antibodies in rabbit sera that immunoreacted with an adsorbed polypeptide were detected using an indicating means comprising alkaline phosphatase-conjugated goat anti-rabbit Ig antibody (Kirkegard & Perry Laboratories, Inc., Gaithersburg, MD). In either instance, 100 microliters of the indicating antibody diluted 1:300 in BBS were added per well to form a further solid/liquid phase composition. This solid-liquid phase composition was maintained for a predetermined time, one hour, for the formation of a reaction product between the human antibodies bound to the solid phase and the indicating means, and at 20 degrees C. The phases were separated, and the solid phase was washed 3 times with BBS.
Alkaline phosphatase-conjugated antibody bound to polypeptide specific antibody was detected by spectrophotometrically measuring the enzymatic hydrolysis of p-nitrophenyl phosphate to p-nitrophenol. Briefly, 100 microliters of p-nitrophenyl phosphate [1 milligram per milliliter in 2 mM MgCl 2, (pH 9.8), 50 mM sodium carbonate] were added to each well. The enzymatic reaction was allowed to proceed 1 hour and then the optical density at 405 nm was determined in a [sequence] spectrophotometer available from Flow Laboratories, Inglewood, Calif.

EBNA = test: Immunoblot of WI-L2 whole cell extracts with rabbit antipeptide antisera, blocking by polypeptide; type: binding, Epstein-Barr virus
Experimental: Exemplary receptor molecules containing antibody combining sites of this invention raised in rabbits to the polypeptides shown in Table 1 were studied using the immunoblotting procedures of Towbin, et. al., Proc. Natl. Acad. Sci., U.S.A., 76:4350-4354 (1979) and Billings, et. al., Proc. Natl. Acad. Sci., U.S.A., 80:7104-7108 (1983). Further details are provided in the Materials and Methods section (III).
Extracts of EBNA producing and non-producing (control) cells were prepared to determine if receptor molecules of this invention were useful for diagnosing EBNA expression. Cells from cultures described hereinabove were washed in phosphate-buffered saline (PBS; 150 mM NaCl, 10 mM sodium phosphate, pH 7.4) containing 0.2 mM phenylmethylsulfonyl fluoride, swollen for 5 minutes in reticulocyte standard buffer (RSB; 10 mM NaCl, 10 mM Tris-HCl, pH 7.4, 1.5 mM MgCl2, 0.2 mM phenylmethylsulfonyl fluoride), and lysed by sonication in 3-5 volumes of RBS adjusted to 0.2-0.35 molar (M) NaCl. After 30 minutes on ice, the sonicate was centrifuged at 10,000×g for 15 minutes to remove cellular debris.
Cell extracts obtained above were assayed for EBNA using human sera known to contain anti-EBNA antibodies or exemplary receptor molecules of this invention. The extracts were either concentrated by precipitation with 2 volumes of ethanol at -20 degrees C. for about 18 hours, and were then dissolved in sample buffer [SB; 10% glycerol, 2% 2-mercaptoethanol, 1% sodium dodecyl sulfate (SDS), 0.002% bromphenol blue, 40 mM Tris-HCl (pH 7.4)] or diluted 1:6 in sample buffer for SDS-polyacrylamide gel electrophoresis (SDS-PAGE). 7.5% Polyacrylamide gels were cast and run according to the procedure of Laemmli, Nature, […] (1970), applying 50 to 200 micrograms of total protein per lane. […]
Anti-peptide antibodies bound to EBNA protein were detected by reacting the blots with an indicating means. […]

SMILES: C[C@H](NC(=O)CNC(=O)CNC(=O)[C@H](C)NC(=O)CNC(=O)[C@H](C)NC(=O)CNC(=O)CNC(=O)CN)C(=O)NCC(=O)N[C@@H](C)C(=O)NCC(=O)NCC(=O)NCC(=O)NCC(=O)N[C@@H](CCCNC(=N)N)C(=O)O [Polypeptide P60, H--Gly--Gly--Gly--Ala--Gly--Ala--Gly--Gly--Ala--Gly--Ala--Gly--Gly--Gly--Gly--Arg--OH] (H-GGGAGAGGAGAGGGGR-OH)
- Inhibition of binding of anti-polypeptide P62 to polypeptide P62 in the solid phase [1]: 81%
- Conformation by circular dichroism spectrum [2]: very similar spectra
- Reactivity of sera of EBV non-immune donors to polypeptide (anti-EBNA antibodies; 27 EBV non-immune (VCA-) donors): None of the sera displayed significant reactivity
- Number of anti-EBNA positive sera positive against (bound to) polypeptide (anti-EBNA antibodies; 91 ACIF anti-EBNA positive sera, 1:20 dilution): 91
- Titer of PSS patients versus normals (anti-EBNA antibodies; Progressive Systemic Schlerosis patients): relatively higher average titer
- Reaction of VCA+ sera with polypeptide (anti-EBNA antibodies; clinically normal VCA+ individuals, two dilutions): all of the VCA^+ individuals were positive
- Reaction of VCA- sera with polypeptide (anti-EBNA antibodies; panel of 19 VCA- sera): None of the VCA^- sera were found to react positively
- OD405 × 10^3 obtained with Patient Antibodies to peptide (anti-EBNA antibodies; MV post-mononucleosis): 162 OD405 × 10^3
- OD405 × 10^3 obtained with Patient Antibodies to peptide (anti-EBNA antibodies; MV pre-mononucleosis): 72 OD405 × 10^3
- OD405 × 10^3 obtained with Patient Antibodies to peptide (anti-EBNA antibodies; SB post-mononucleosis): 115 OD405 × 10^3
- OD405 × 10^3 obtained with Patient Antibodies to peptide (anti-EBNA antibodies; SB pre-mononucleosis): 51 OD405 × 10^3
- OD405 × 10^3 obtained with Patient Antibodies to peptide (anti-EBNA antibodies; VCA+ Normal 1): 154 OD405 × 10^3
- OD405 × 10^3 obtained with Patient Antibodies to peptide (anti-EBNA antibodies; VCA+ Normal 2): 145 OD405 × 10^3
- OD405 × 10^3 obtained with Patient Antibodies to peptide (anti-EBNA antibodies; VCA- Normals (n = 27), average ± one standard deviation): 45 ± 18 OD405 × 10^3
- Immunoreactivity of anti-P62 serum with the EBNA band after preincubation with polypeptide (EBNA; serum 1:10, 40 ug/ml polypeptide P60, one hour): inhibited
- Recognition of EBNA by anti-P60 serum after preincubation with polypeptide (EBNA; serum 1:50, 40 ug/ml polypeptide, one hour): inhibited
